Test results as given in patent US8778413B2, “Dosing regimens and methods of treatment using carbon monoxide” (Ikaria, Inc., priority 2010, dated 2014).
Entries after “also recorded” stand apart in the source; their conditions may differ. Like-named read-outs stand apart in the source and are kept apart here. Marks after values point to notes of the source that are not given here.

Legend:
[1] = water at 0° C.; cited from earlier work
[2] = test system: renal transplant recipients; assay: Safety of carbon monoxide dosing regimens (AEs, ECG, QTc); assay type: in vivo, human
Protocol: (§1) Study subjects receive either (i) 12-48 hours post-operatively following renal transplant, a single dose of placebo (i.e., O2 30% in nitrogen) or carbon monoxide (Covox 12 mg/L) at 0.7 mg/kg or 2 mg/kg via inhalation for a time period of 1 hour, or (ii) intra-operatively during renal transplant surgery (at the time of re-anastomosis), a dose of placebo (i.e., O2 30% in nitrogen), 2 mg/kg or 3 mg/kg carbon monoxide via inhalation for a time period of 1 hour.
All renal transplant recipients receiving carbon monoxide up to 3 mg/kg carbon monoxide (both intra-operatively and post-operatively dosed) are evaluated for safety. […] The most sensitive organs to carbon monoxide poisoning are heart and brain. As presented herein, the relationship between carbon monoxide exposure (COHb) and cardiovascular function (i.e., QTc) at 8 hours post-treatment of subjects receiving inhaled carbon monoxide or placebo (FIG. 4) is assessed via a pharmacokinetic-pharmacodynamic (PKPD) approach. Similarly, as presented herein, the relationship between subjects receiving one of various inhaled carbon monoxide doses or placebo and key neurocognitive functions (i.e., individual digit vigilance speed (FIG. 5), numeric working memory accuracy (FIG. 6) and picture recognition (FIG. 7)) up to 24 weeks post-treatment is assessed via a pharmacokinetic-pharmacodynamic (PKPD) approach.

[3] = test system: renal transplant recipients; assay: Neurocognitive functions (digit vigilance speed, numeric working memory accuracy, picture recognition); assay type: in vivo, human; conditions: up to 3 mg/kg inhaled 1 hour, up to 24 weeks post-treatment
Protocol: FIG. 5, FIG. 6 and FIG. 7 illustrate the impact of carbon monoxide treatment on neurocognitive functions over 6 months in subjects receiving kidney transplants following inhalation of placebo, 0.7 mg/kg, 2 mg/kg or 3 mg/kg carbon monoxide through the evaluation of individual digit vigilance speed (FIG. 5), numeric working memory accuracy (FIG. 6) and picture recognition (FIG. 7). The CO doses were administered either 12-48 hours post-operatively following renal transplant (placebo, 0.7 mg/kg or 2 mg/kg) or intra-operatively during renal transplant surgery (placebo, 2 mg/kg or 3 mg/kg). Visit #1: Screening; Visit #4: Day 0; Visit #6: Day 1; Visit #14-16: Day 28; Visit #17-18: Follow-up Weeks 16-24. The open symbols reflect individual observations, the thin lines reflect individual trends and thick lines reflect the average trend based on linear regression. […]
All renal transplant recipients receiving carbon monoxide up to 3 mg/kg carbon monoxide (both intra-operatively and post-operatively dosed) are evaluated for safety. […] As presented herein, the relationship between carbon monoxide exposure (COHb) and cardiovascular function (i.e., QTc) at 8 hours post-treatment of subjects receiving inhaled carbon monoxide or placebo (FIG. 4) is assessed via a pharmacokinetic-pharmacodynamic (PKPD) approach. […]

[4] = assay type: in vivo, human; conditions: for CL/F, based on net COHb: intra-operative
Protocol: as §1
COHb exposure is measured using conventional methods. For example, COHb exposure can be ascertained by measuring the amount present in venous blood using a device known as a CO-OXI meter. For both post- and intra-operative dosing regimens, dose-dependency of COHb Cmax and AUC is evaluated, the results of which are shown graphically in FIGS. 1A and 1B.

[5] = test system: renal function of renal transplant recipients; assay: Transplanted organ (renal) function: serum creatinine and calculated GFR; assay type: in vivo, human
Protocol: as §1
Organ function is assessed in subjects using pharmacodynamic markers representing renal functions. In particular, serum creatinine (SCr) levels are measured (using conventional methods) and glomerular filtration rate (GFR) is calculated via MDRD (GFR (mL/min/1.73 m2)=175×(Scr)−1.154× (Age)−0.203×(0.742 if female)×(1.212 if African American); as described by Levey et al., “Chronic Kidney Disease Epidemiology Collaboration. Using standardized serum creatinine values in the modification of diet in renal disease study equation for estimating glomerular filtration rate,” Ann Intern Med, 145(4):247-254 (2006)).

Structure (SMILES): [C-]#[O+] [carbon monoxide]
- saturation point [1]: about 0.0044 g CO/100 g medium
- QT prolongation (QTc change from baseline versus COHb) ([2]; 8 hours after inhalation, up to 3 mg/kg for 1 hour): does not have an effect on QT prolongation; also recorded: unlikely to cause QT prolongation
- tolerability ([2]; all dose levels up to 3 mg/kg, intra- and post-operatively dosed): well tolerated
- ECG changes ([2]; up to 3 mg/kg): no ECG changes observed on heart rate, PR interval, QRS duration or QTcF duration
- new morphological changes or new infarction potentials ([2]; up to 3 mg/kg): no evidence observed on new morphological changes or new infarction potentials
- incidence of cardiovascular and neurological AEs ([2]; up to 3 mg/kg, versus placebo): comparable between CO and placebo treated subjects
- impact on neurocognitive functions [3]: does not have negative impact on neurocognitive functions; also recorded: unlikely to cause QT prolongation and affect neurocognitive functions
- impact on neurocognitive functions ([3]; listed as CO): does not show any negative impact on neurocognitive functions
- CL/F, based on net COHb ([4]; 2.0 mg/kg, mean (n=6)): 0.0474 mg/kg/(% * h)
- CL/F, based on net COHb ([4]; 3.0 mg/kg, mean (n=5)): 0.0549 mg/kg/(% * h)
- dose-dependency of COHb Cmax and AUC (% COHb/Hb) ([4]; post- and intra-operative regimens, 0.7-3 mg/kg, FIGS. 1A and 1B): increased with an increase in the dose of inhaled carbon monoxide in an approximately proportional manner
- renal function (GFR and Scr) ([5]; given 12-48 hours after the surgery, 0.7 or 2 mg/kg): does not improve renal function
- renal function (GFR and Scr) ([5]; given during surgery (intra-operatively), 2 or 3 mg/kg): improves renal function in a dose-dependent manner
- calculated GFR on Day 1 and Day 2 versus COHb concentration ([5]; intra-operatively treated subjects, FIG. 2 left panel): increased COHb is related to improved renal function (GFR)
- serum creatinine level on Day 2 versus COHb concentration ([5]; intra-operatively treated subjects, FIG. 3 left panel): increased COHb is related to improved renal function (decreased serum creatinine)
- calculated GFR on Day 1 and Day 2 versus COHb concentration ([5]; post-operatively treated subjects, FIG. 2 right panel): increased COHb is not related to the improvement of GFR
- serum creatinine level on Day 2 versus COHb concentration ([5]; post-operatively treated subjects, FIG. 3 right panel): increased COHb did not improve the renal function (increased serum creatinine)
